In general, IC50 refers to the concentration that gives 50% inhibition.

BCL2, sequence (P10415 whole entry): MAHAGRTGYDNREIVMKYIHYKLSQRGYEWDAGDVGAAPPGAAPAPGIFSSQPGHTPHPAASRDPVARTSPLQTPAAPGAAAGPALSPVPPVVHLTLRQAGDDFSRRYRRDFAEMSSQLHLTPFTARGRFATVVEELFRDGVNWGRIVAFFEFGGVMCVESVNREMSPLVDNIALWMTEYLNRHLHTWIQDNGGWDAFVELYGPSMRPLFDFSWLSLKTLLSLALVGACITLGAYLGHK

The target of the test is BCL2 (Homo sapiens (Human), UniProt P10415). In words: Molecular level activity test of anti-apoptotic protein BCL2 (HTRF, binding to Bim peptide). The following applies: HTRF, binding of BCL2 to Bim peptide; read-out: BCL2 nM (inhibitory activity, IC50). The essentials:
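Disruption of the BCL2/Bim peptide interaction is detected by homogeneous time-resolved fluorescence, using anti-His and streptavidin-XL665 reagents against His-tagged protein and biotin-tagged peptide. Compound exposure lasts 1 h before reagent addition; plates then sit 4 h at room temperature.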
(In general: In TR-FRET formats the signal depends on donor and acceptor labels being close together.)
In the case of `CC(C)c1ccccc1[C@@H]1CN(Cc2ccc(C#N)cc2)CCN1C1CC2(CCN(c3cc(Oc4cnc5[nH]ccc5c4)c(C(=O)NS(=O)(=O)c4ccc(NC[C@H]5CC[C@](C)(O)CC5)c([N+](=O)[O-])c4)cc3F)CC2)C1` [compound 214, 2-((1H-pyrrolo[2,3-b]pyrid-5-yl)oxy)-4-(2-((R)-4-(4-cyanobenzyl)-2-(2-isopropylphenyl)piperazin-1-yl)-7-azaspiro[3.5]non-7-yl)-5-fluoro-N-((4-((((1r, 4r)-4-hydroxy-4-methylcyclohexyl)methyl)amino)-3-nitrophenyl)sulfonyl)benzamide], the 50% inhibitory concentration (IC50) was less than 10 nM.

For the molecule `CC(C)c1ccccc1[C@@H]1CN(Cc2ccc(F)cc2)CCN1C1CC2(CCN(c3cc(Oc4cnc5[nH]ccc5c4)c(C(=O)NS(=O)(=O)c4ccc(NC[C@H]5CC[C@](C)(O)CC5)c([N+](=O)[O-])c4)cc3F)CC2)C1` [compound 215, 2-((1H-pyrrolo[2,3-b]pyrid-5-yl)oxy)-5-fluoro-4-(2-((R)-4-(4-fluorobenzyl)-2-(2-isopropylphenyl)piperazin-1-yl)-7-azaspiro[3.5]non-7-yl)-N-((4-((((1r, 4r)-4-hydroxy-4-methylcyclohexyl)methyl)amino)-3-nitrophenyl)sulfonyl)benzamide], the IC50 is less than 10 nM.

As for `CC(C)c1ccccc1[C@@H]1CN(Cc2cccc(F)c2F)CCN1C1CC2(CCN(c3cc(Oc4cnc5[nH]ccc5c4)c(C(=O)NS(=O)(=O)c4ccc(NC[C@H]5CC[C@](C)(O)CC5)c([N+](=O)[O-])c4)cc3F)CC2)C1` [compound 218, 2-((1H-pyrrolo[2,3-b]pyrid-5-yl)oxy)-4-(2-((R)-4-(2,3-difluorobenzyl)-2-(2-isopropylphenyl)piperazin-1-yl)-7-azaspiro[3.5]non-7-yl)-5-fluoro-N-((4-((((1r, 4r)-4-hydroxy-4-methylcyclohexyl)methyl)amino)-3-nitrophenyl)sulfonyl)benzamide], the 50% inhibitory concentration (IC50) was less than 10 nM.

As to `CC(C)c1ccccc1[C@@H]1CN(Cc2ccc(C3CC3)cc2)CCN1C1CC2(CCN(c3cc(Oc4cnc5[nH]ccc5c4)c(C(=O)NS(=O)(=O)c4ccc(NC[C@H]5CC[C@](C)(O)CC5)c([N+](=O)[O-])c4)cc3F)CC2)C1` [compound 219, 2-((1H-pyrrolo[2,3-b]pyrid-5-yl)oxy)-4-(2-((R)-4-(4-cyclopropylbenzyl)-2-(2-isopropylphenyl)piperazin-1-yl)-7-azaspiro[3.5]non-7-yl)-5-fluoro-N-((4-((((1r, 4r)-4-hydroxy-4-methylcyclohexyl)methyl)amino)-3-nitrophenyl)sulfonyl)benzamide], the half-inhibitory concentration (IC50) is less than 10 nM.

`COc1cc(CN2CCN(C3CC4(CCN(c5cc(Oc6cnc7[nH]ccc7c6)c(C(=O)NS(=O)(=O)c6ccc(NC[C@H]7CC[C@](C)(O)CC7)c([N+](=O)[O-])c6)cc5F)CC4)C3)[C@H](c3ccccc3C(C)C)C2)ccc1C1CC1` [compound 220, 2-((1H-pyrrolo[2,3-b]pyrid-5-yl)oxy)-4-(2-((R)-4-(4-cyclopropyl-3-methoxybenzyl)-2-(2-isopropylphenyl)piperazin-1-yl)-7-azaspiro[3.5]non-7-yl)-5-fluoro-N-((4-((((1r, 4r)-4-hydroxy-4-methylcyclohexyl)methyl)amino)-3-nitrophenyl)sulfonyl)benzamide]: the 50% inhibitory concentration (IC50) is less than 10 nM.

With `COc1ccc(CN2CCN(C3CC4(CCN(c5cc(Oc6cnc7[nH]ccc7c6)c(C(=O)NS(=O)(=O)c6ccc(NC[C@H]7CC[C@](C)(O)CC7)c([N+](=O)[O-])c6)cc5F)CC4)C3)[C@H](c3ccccc3C(C)C)C2)cc1OC` [compound 221, 2-((1H-pyrrolo[2,3-b]pyrid-5-yl)oxy)-4-(2-((R)-4-(3,4-dimethoxybenzyl)-2-(2-isopropylphenyl)piperazin-1-yl)-7-azaspiro[3.5]non-7-yl)-5-fluoro-N-((4-((((1r, 4r)-4-hydroxy-4-methylcyclohexyl)methyl)amino)-3-nitrophenyl)sulfonyl)benzamide], the concentration for half-maximal inhibition (IC50) was less than 10 nM.

Regarding `COc1ccc(CN2CCN(C3CC4(CCN(c5cc(Oc6cnc7[nH]ccc7c6)c(C(=O)NS(=O)(=O)c6ccc(NC[C@H]7CC[C@](C)(O)CC7)c([N+](=O)[O-])c6)cc5F)CC4)C3)[C@H](c3ccccc3C(C)C)C2)c2c1OCO2` [compound 223, 2-((1H-pyrrolo[2,3-b]pyrid-5-yl)oxy)-5-fluoro-N-((4-((((1r, 4r)-4-hydroxy-4-methylcyclohexyl)methyl)amino)-3-nitrophenyl)sulfonyl)-4-(2-((R)-2-(2-isopropylphenyl)-4-((7-methoxybenzo[d][1,3]dioxycyclopent-4-yl)methyl)piperazin-1-yl)-7-azaspiro[3.5]non-7-yl)benzamide], the concentration for half-maximal inhibition (IC50) is less than 10 nM.

Turning to `COc1cc(CN2CCN(C3CC4(CCN(c5cc(Oc6cnc7[nH]ccc7c6)c(C(=O)NS(=O)(=O)c6ccc(NC[C@H]7CC[C@](C)(O)CC7)c([N+](=O)[O-])c6)cc5F)CC4)C3)[C@H](c3ccccc3C(C)C)C2)cc2cc(C)oc12` [compound 225, 2-((1H-pyrrolo[2,3-b]pyrid-5-yl)oxy)-5-fluoro-N-((4-((((1r, 4r)-4-hydroxy-4-methylcyclohexyl)methyl)amino)-3-nitrophenyl)sulfonyl)-4-(2-((R)-2-(2-isopropylphenyl)-4-((7-methoxy-2-methylbenzofuran-5-yl)methyl)piperazin-1-yl)-7-azaspiro[3.5]non-7-yl)benzamide], the IC50 was less than 10 nM.

Turning to `COc1ccc(CN2CCN(C3CC4(CCN(c5cc(Oc6cnc7[nH]ccc7c6)c(C(=O)NS(=O)(=O)c6ccc(NC[C@H]7CC[C@](C)(O)CC7)c([N+](=O)[O-])c6)cc5F)CC4)C3)[C@H](c3ccccc3C(C)C)C2)c2c1OCCO2` [compound 228, 2-((1H-pyrrolo[2,3-b]pyrid-5-yl)oxy)-5-fluoro-N-((4-((((1r, 4r)-4-hydroxy-4-methylcyclohexyl)methyl)amino)-3-nitrophenyl)sulfonyl)-4-(2-((R)-2-(2-isopropylphenyl)-4-((8-methoxy-2,3-dihydrobenzo[b][1,4]dioxan-5-yl)methyl)piperazin-1-yl)-7-azaspiro[3.5]non-7-yl)benzamide], the half-maximal inhibitory concentration (IC50) was less than 10 nM.

Consider `CC(C)c1ccccc1[C@@H]1CN(Cc2cnn(C)c2)CCN1C1CC2(CCN(c3cc(Oc4cnc5[nH]ccc5c4)c(C(=O)NS(=O)(=O)c4ccc(NC[C@H]5CC[C@](C)(O)CC5)c([N+](=O)[O-])c4)cc3F)CC2)C1` [compound 229, 2-((1H-pyrrolo[2,3-b]pyrid-5-yl)oxy)-5-fluoro-N-((4-((((1r, 4r)-4-hydroxy-4-methylcyclohexyl)methyl)amino)-3-nitrophenyl)sulfonyl)-4-(2-((R)-2-(2-isopropylphenyl)-4-((1-methyl-1H-pyrazole-4-yl)methyl)piperazin-1-yl)-7-azaspiro[3.5]non-7-yl)benzamide], for which the concentration for half-maximal inhibition (IC50) was less than 10 nM.

As for `CC(C)c1ccccc1[C@@H]1CN(Cc2cnn(C(C)C)c2)CCN1C1CC2(CCN(c3cc(Oc4cnc5[nH]ccc5c4)c(C(=O)NS(=O)(=O)c4ccc(NC[C@H]5CC[C@](C)(O)CC5)c([N+](=O)[O-])c4)cc3F)CC2)C1` [compound 230, 2-((1H-pyrrolo[2,3-b]pyrid-5-yl)oxy)-5-fluoro-N-((4-((((1r, 4r)-4-hydroxy-4-methylcyclohexyl)methyl)amino)-3-nitrophenyl)sulfonyl)-4-(2-((R)-4-((1-isopropyl-1H-pyrazole-4-yl)methyl)-2-(2-isopropylphenyl)piperazin-1-yl)-7-azaspiro[3.5]non-7-yl)benzamide], the half-inhibitory concentration (IC50) was less than 10 nM.
